For data set [1], the system named is Jurkat cell line. Description: in vitro toxicity study, cytotoxicity (Jurkat cell). The data set is classed as cell-based.
The subject of data set [2] is human peripheral blood lymphocyte (PBL) proliferation. The class given is cell-based.

Like-named read-outs stand apart in the source and are kept apart here.

Consider `Cn1cc[n+]([Ru-3]([n+]2ccn(C)c2)([n+]2ccn(C)c2)([n+]2ccn(C)c2)([n+]2ccn(C)c2)[n+]2ccn(C)c2)c1.F[P-](F)(F)(F)(F)F.F[P-](F)(F)(F)(F)F.F[P-](F)(F)(F)(F)F` [Ru(1-MeIm)6 !(PF6)3], for which, in data set [1], the “Cytotoxicity (Jurkat cell) IC50” value is 115 µg/mL. In data set [2], the IC50 was determined as 0.19 ± 0.16 µg/mL.
On the same counts, the results for `Cn1cc[n+]([Ru-4]([n+]2ccn(C)c2)([n+]2ccn(C)c2)([n+]2ccn(C)c2)([n+]2ccn(C)c2)[n+]2ccn(C)c2)c1.[Cl-].[Cl-]` [Ru(1-MeIm)6 !Cl2] are 2000 µg/mL and 0.052 ± 0.03 µg/mL.
As to `Cn1cc[n+]([Ru-3]([n+]2ccn(C)c2)([n+]2ccn(C)c2)([n+]2ccn(C)c2)([n+]2ccn(C)c2)[n+]2ccn(C)c2)c1.[Cl-].[Cl-].[Cl-]` [Ru(1-MeIm)6 !Cl3], in data set [1], the “Cytotoxicity (Jurkat cell) IC50” value was above 300 µg/mL. This compound also yielded an IC50 in data set [2] of 0.12 ± 0.1 µg/mL.
For `[Cl-].[Cl-].c1c[n+]([Ru-4]([n+]2cc[nH]c2)([n+]2cc[nH]c2)([n+]2cc[nH]c2)([n+]2cc[nH]c2)[n+]2cc[nH]c2)c[nH]1` [Ru(Im)6 !Cl2], the “Cytotoxicity (Jurkat cell) IC50” value in data set [1] is 200 µg/mL. Moreover, in data set [2], the IC50 stood at 0.0067 ± 0.003 µg/mL.
For `[Cl-].[Cl-].[Cl-].c1c[n+]([Ru-3]([n+]2cc[nH]c2)([n+]2cc[nH]c2)([n+]2cc[nH]c2)([n+]2cc[nH]c2)[n+]2cc[nH]c2)c[nH]1` [Ru(Im)6 !Cl3], the “Cytotoxicity (Jurkat cell) IC50” value in data set [1] (values are extrapolated) was 530 µg/mL. The IC50 in data set [2] was determined as 0.005 ± 0.004 µg/mL.
For Ru(4-MeIm)6 !Cl2, in that order: 1040 µg/mL and 0.09 ± 0.07 µg/mL.

The values are drawn from patent publication US5512687A, “Compounds for inhibiting immune response” (Procept, Inc., priority 1994, dated 1996).
